Assay: Inhibition of Src-mediated dentine resorption in rabbit-osteoclast assay

Row | IC50 [µM] | Compound
1 | 0.141 | N[C@H]1CC[C@H](Nc2nc(Nc3ccccc3)c3ncn(C4CCCC4)c3n2)CC1
2 | 15.7 | N[C@H]1CC[C@H](Nc2nc(Nc3ccc(P(=O)(O)O)c(P(=O)(O)O)c3)c3ncn(C4CCCC4)c3n2)CC1
3 | 22 | N[C@H]1CC[C@H](Nc2nc(Nc3ccc(C(P(=O)(O)O)P(=O)(O)O)cc3)c3ncn(C4CCCC4)c3n2)CC1
4 | 0.041 | N[C@H]1CC[C@H](Nc2nc(Nc3ccc(P(=O)(O)CP(=O)(O)O)cc3)c3ncn(C4CCCC4)c3n2)CC1
5 | 48.2 | O=P(O)(O)C(O)(CCCNc1nc(Nc2ccccc2)c2ncn(C3CCCC3)c2n1)P(=O)(O)O
6 | 9.81 | CN(C)CCNc1nc(Nc2ccccc2)c2ncn(C3CCCC3)c2n1
7 | 5.23 | O=P(O)(O)CP(=O)(O)CCCNc1nc(Nc2ccccc2)c2ncn(C3CCCC3)c2n1

Reference: BindingDB's records for doi:10.1016/s0960-894x(03)00648-6 (Ariad Pharmaceuticals, 2003)
